Among the data in ChEMBL document CHEMBL3808324, “Promising Therapeutic Potential of P2X7 Modulators” (ACS Med Chem Lett, 2016) are Activity and IC50 values, retold here.

Assay [1] addresses T1, P2X purinoceptor 7 (Homo sapiens) (UniProt Q99572).
T1 sequence (whole entry): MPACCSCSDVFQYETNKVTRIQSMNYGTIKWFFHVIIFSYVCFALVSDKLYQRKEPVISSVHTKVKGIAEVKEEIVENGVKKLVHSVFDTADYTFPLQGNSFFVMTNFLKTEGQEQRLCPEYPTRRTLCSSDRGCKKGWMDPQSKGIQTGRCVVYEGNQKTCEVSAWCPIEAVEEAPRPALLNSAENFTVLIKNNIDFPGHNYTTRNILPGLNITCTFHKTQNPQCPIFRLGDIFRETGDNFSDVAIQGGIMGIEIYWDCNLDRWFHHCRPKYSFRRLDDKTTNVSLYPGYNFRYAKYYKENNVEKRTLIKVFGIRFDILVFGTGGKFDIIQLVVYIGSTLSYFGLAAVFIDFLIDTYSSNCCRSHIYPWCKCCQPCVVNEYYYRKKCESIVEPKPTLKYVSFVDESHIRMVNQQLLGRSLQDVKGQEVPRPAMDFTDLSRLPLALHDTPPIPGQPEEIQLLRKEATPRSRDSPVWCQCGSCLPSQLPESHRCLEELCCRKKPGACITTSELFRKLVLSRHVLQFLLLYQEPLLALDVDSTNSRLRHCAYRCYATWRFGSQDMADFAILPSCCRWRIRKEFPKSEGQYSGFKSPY
The assay is described as follows: Antagonist activity against ATP-gated P2X7 receptor in LPS-stimulated human PBMC assessed as reduction in P2X7 agonist 2'(3')-O-(4-benzoylbenzoyl) adenosine 5'-triphosphate-induced IL-1beta at 1 uM incubated for 30 mins after 1 hr pre-treatment with LPS followed by Bz-ATP-stimulation for 1.5 hrs by ELISA. Further details: scale not given: the % may be the effect or the level left. (In general: ELISA stands for enzyme-linked immunosorbent assay.)

For assay [2], the target named is T1, P2X purinoceptor 7 (Homo sapiens). The assay is described as follows: Antagonist activity against ATP-gated P2X7 receptor in LPS-stimulated human PBMC assessed as reduction in P2X7 agonist 2'(3')-O-(4-benzoylbenzoyl) adenosine 5'-triphosphate-induced IL-1beta at 10 uM incubated for 30 mins after 1 hr pre-treatment with LPS followed by Bz-ATP-stimulation for 1.5 hrs by ELISA. Further details: scale not given: the % may be the effect or the level left.

For assay [3], the target named is T2, P2X purinoceptor 7 (Rattus norvegicus, UniProt Q64663).
T2 sequence (Q64663 whole entry): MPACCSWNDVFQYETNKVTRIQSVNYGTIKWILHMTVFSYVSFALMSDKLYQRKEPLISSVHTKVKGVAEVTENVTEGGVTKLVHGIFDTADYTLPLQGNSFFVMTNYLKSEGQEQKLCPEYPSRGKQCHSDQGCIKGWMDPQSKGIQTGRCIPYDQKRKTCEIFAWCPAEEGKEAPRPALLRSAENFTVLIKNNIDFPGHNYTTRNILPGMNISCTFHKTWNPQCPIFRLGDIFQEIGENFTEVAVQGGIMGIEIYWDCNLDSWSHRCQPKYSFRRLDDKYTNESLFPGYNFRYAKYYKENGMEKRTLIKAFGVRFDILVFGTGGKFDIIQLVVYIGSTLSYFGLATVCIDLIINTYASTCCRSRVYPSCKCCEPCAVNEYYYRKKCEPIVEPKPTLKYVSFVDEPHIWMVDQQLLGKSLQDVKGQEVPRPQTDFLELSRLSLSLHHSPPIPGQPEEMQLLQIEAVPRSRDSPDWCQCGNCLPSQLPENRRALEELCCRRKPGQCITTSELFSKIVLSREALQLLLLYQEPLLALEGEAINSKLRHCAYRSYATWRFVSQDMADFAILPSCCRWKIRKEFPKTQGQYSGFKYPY
Nature of the assay: Antagonist activity against rat recombinant ATP-gated P2X7 receptor expressed in human 1321N1 cells assessed as reduction in BzATP -induced Ca2+ flux pre-incubated for 30 mins before BzATP addition by calcium-4 dye based FLIPR assay. The class given is cell-based. In general terms: Calcium flux is commonly read through the fluorescence of an indicator in the cells.

Turning to `O=C(c1cccc(C(F)(F)F)c1Cl)N1CCc2c(ncnc2-c2ccccn2)C1`, in assay [1], the Activity was 26.9%. One may read the IC50 as the midpoint of a concentration-inhibition curve. As to `COc1cccc(C(=O)N2Cc3nc(C)nc(-c4ccn[nH]4)c3CC2C)c1F` (stereo not drawn), the Activity in assay [2] stood at 2%. The IC50 in assay [3] was 1460 nM. In the case of `O=C(c1cccc(Cl)c1Cl)N1CCc2c(ncnc2-n2nccn2)C1`, the Activity in assay [1] amounted to 71.8%.

Consider `O=C(c1cccc(Cl)c1Cl)N1CCc2c(ncnc2-c2ccn[nH]2)C1`, for which, in assay [1], the Activity worked out at 14.2%. Turning to `Cc1nc2c(c(-c3c(C)noc3C)n1)CCN(C(=O)c1cccc(C(F)(F)F)c1Cl)C2`, the values for the Activity in assay [2] and in assay [1] were 100% and 104%, respectively. For `Cc1nc2c(c(-c3ccn[nH]3)n1)C[C@@H](C)N(C(=O)c1ccc(F)c(C(F)(F)F)c1Cl)C2` (single isomer, unassigned), the Activity in assay [2] was -6.1%.
